Results reported in ChEMBL document CHEMBL1201862, “PubChem BioAssay data set” (2004).
Activity calls are given as the source filed them.

What was measured:
[1] = target: Troponin, cardiac muscle (Homo sapiens, UniProt P19429+P45379+P63316); assay: Fluorescence-based biochemical high throughput dose response assay for activators of the calcium sensitivity of cardiac Regulated Thin Filaments (RTF). [Related pubchem assays (depositor defined):AID493008, AID493018, AID504382, AID504383]; assay type: protein-complex assay
[2] = target: T1, G-protein coupled receptor 55 (Homo sapiens, UniProt Q9Y2T6); assay: inhibition of LPI-stimulated GPR55 beta-arrestin translocation – imaging, U2OS, beta-arrestin-GFP, LPI agonist, primary screen (AID 2013); assay type: functional;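 further: antagonist potency measured as reduced agonist-driven arrestin aggregation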
[3] = target: T2, DNA dC->dU-editing enzyme APOBEC-3A (Homo sapiens, UniProt P31941); assay: A3A deaminase inhibition for selectivity – biochemical, dose response (AID 504722); assay type: functional
[4] = target: Glucose-6-phosphate 1-dehydrogenase (Homo sapiens, UniProt P11413); assay: inhibition of Homo sapiens G6PD, dose series – biochemical, fluorescence, selectivity assay for P. falciparum G6PD inhibitor project, dose response (AID 504792); assay type: functional
[5] = target: T3, DNA dC->dU-editing enzyme APOBEC-3G (Homo sapiens, UniProt Q9HC16); assay: Dose Response confirmation of small molecule APOBEC3G DNA Deaminase Inhibitors via a fluorescence-based single-stranded DNA deaminase assay. [Related pubchem assays (depositor defined):AID493012, AID493028]; assay type: functional
[6] = cells; assay type: functional
[7] = NIH-3T3 fibroblast cytotoxicity, dose response, cytotoxicity control, cell-based, fluorescence, Alamar Blue, secondary assay (AID 2327); assay type: functional;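 further: NIH-3T3 mouse fibroblasts cultured with fluconazole at 8 µg/mL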
[8] = test system: Streptococcus sp. 'group A'; assay: Streptococcus pyogenes SK(-)GAS viability under kanamycin – luminescence, BacTiterGlo, confirmation, counter-screen for streptokinase expression inhibitor project, dose response (AID 1900); assay type: functional, organism-based
[9] = target: Transitional endoplasmic reticulum ATPase (Homo sapiens, UniProt P55072, C522A); assay: C522A mutant p97 ATPase inhibitors, dose response, counter-screen for p97 inhibitor project, biochemical, luminescence (AID 1544)
[10] = target: T4, Streptokinase A (Streptococcus pyogenes serotype M1, UniProt P10520); assay: viability-normalized secreted streptokinase activity reduction – plasminogen activation absorbance, OD405, dose response (AID 1914); assay type: functional, Streptococcus pyogenes M1 GAS;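 further: secreted streptokinase activity via plasminogen activation per viability signal from cell pellet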
T4 sequence (P10520 whole entry): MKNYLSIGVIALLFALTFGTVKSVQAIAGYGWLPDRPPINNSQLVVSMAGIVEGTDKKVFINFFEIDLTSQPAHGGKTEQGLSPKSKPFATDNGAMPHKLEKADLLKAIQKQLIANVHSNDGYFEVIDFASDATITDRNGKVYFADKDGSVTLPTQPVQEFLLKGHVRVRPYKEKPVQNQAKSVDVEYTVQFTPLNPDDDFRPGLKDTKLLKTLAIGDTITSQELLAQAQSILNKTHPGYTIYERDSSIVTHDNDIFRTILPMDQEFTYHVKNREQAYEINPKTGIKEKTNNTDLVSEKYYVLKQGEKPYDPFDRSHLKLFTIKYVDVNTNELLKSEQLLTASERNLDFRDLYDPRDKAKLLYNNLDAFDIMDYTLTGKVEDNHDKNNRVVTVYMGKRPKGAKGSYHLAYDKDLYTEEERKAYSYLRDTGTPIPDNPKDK

[11] = fluconazole-exposed Candida albicans growth modulators – fluorescence, retest, confirmation (AID 2467); assay type: functional, cell-based
[12] = target: Transitional endoplasmic reticulum ATPase (Homo sapiens, UniProt P55072); assay: p97 ATPase inhibitors, dose response, biochemical (AID 1534)
[13] = test system: Streptococcus; assay: GAS UMAA2166 growth inhibition – luminescence, BacTiterGlo, counter-screen for streptokinase expression inhibitor project, dose response (AID 1915); assay type: functional, organism-based;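 further: potency for reduction of bacterial viability or growth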
[14] = target: T1, G-protein coupled receptor 55; assay: selective activators of receptor GPR55 – imaging, U2OS cells, beta-arrestin-GFP redistribution, primary screen (AID 1961); assay type: functional
[15] = target: Cytochrome P450 3A4 (Homo sapiens, UniProt P08684); conditions: Potency;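 further: confirmatory qHTS run detecting inhibitors and substrates of CYP3A4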
[16] = target: Alkaline phosphatase, placental type (Homo sapiens, UniProt P05187); assay: human placental alkaline phosphatase inhibition – biochemical, luminescence, confirmation (AID 1512); assay type: functional
[17] = microbe, parasite or virus in culture; assay type: functional; conditions: Mycobacterium tuberculosis
[18] = target: T2, DNA dC->dU-editing enzyme APOBEC-3A; assay: Dose Response confirmation of small molecule APOBEC3A DNA Deaminase Inhibitors via a fluorescence-based single-stranded DNA deaminase assay. [Related pubchem assays (depositor defined):AID493011, AID493024]; assay type: functional
[19] = target: T3, DNA dC->dU-editing enzyme APOBEC-3G; assay type: functional
[20] = target: Eukaryotic translation initiation factor 4E (Mus musculus, UniProt P63073); assay: blockers of eIF4G binding by eIF4E – biochemical, TR-FRET, dose response (AID 855); assay type: functional;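 further: potency for disrupting eIF4E binding to eIF4GI seen as loss of FRET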
Eukaryotic translation initiation factor 4E, sequence (P63073 whole entry): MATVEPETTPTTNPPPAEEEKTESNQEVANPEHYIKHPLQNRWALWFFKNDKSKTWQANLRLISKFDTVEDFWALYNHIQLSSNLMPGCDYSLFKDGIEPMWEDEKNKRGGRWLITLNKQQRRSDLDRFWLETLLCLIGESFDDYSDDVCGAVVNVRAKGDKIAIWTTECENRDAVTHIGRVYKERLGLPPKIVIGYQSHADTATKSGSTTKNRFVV

Cytochrome P450 3A4, sequence (P08684 whole entry): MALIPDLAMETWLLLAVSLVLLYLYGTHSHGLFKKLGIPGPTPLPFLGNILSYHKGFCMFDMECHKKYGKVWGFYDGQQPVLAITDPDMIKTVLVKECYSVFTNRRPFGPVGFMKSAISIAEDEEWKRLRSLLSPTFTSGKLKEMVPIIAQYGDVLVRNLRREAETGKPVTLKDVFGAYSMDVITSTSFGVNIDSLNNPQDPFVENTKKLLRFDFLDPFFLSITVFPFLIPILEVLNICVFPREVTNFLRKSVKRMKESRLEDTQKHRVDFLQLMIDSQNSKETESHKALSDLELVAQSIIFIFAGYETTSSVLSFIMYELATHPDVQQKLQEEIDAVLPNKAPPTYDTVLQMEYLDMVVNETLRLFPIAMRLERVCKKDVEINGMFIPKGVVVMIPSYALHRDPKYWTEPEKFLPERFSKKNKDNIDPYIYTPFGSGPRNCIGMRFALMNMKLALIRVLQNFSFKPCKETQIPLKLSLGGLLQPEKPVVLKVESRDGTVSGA
T1 sequence (Q9Y2T6 whole entry): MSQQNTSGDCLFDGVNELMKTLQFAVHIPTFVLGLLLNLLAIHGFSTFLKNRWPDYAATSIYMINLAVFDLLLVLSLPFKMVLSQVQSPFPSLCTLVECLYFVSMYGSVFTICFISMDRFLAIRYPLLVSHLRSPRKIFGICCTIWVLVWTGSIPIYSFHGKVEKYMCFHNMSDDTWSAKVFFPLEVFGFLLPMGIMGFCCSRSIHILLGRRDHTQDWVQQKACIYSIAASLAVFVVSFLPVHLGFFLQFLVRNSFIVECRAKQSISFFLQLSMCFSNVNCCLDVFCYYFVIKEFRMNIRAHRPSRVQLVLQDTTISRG
T3 sequence (Q9HC16 whole entry): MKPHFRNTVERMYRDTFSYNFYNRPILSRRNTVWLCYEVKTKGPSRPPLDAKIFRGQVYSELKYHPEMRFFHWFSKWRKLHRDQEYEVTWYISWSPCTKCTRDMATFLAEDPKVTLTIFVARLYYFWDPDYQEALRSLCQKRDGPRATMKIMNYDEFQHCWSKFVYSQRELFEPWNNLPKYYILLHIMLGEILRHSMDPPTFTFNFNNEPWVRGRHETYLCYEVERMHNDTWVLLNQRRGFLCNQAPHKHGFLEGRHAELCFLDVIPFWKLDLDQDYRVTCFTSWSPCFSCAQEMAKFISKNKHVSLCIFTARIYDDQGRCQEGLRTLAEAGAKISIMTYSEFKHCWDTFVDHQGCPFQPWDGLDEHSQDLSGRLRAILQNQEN
T2 sequence (P31941 whole entry): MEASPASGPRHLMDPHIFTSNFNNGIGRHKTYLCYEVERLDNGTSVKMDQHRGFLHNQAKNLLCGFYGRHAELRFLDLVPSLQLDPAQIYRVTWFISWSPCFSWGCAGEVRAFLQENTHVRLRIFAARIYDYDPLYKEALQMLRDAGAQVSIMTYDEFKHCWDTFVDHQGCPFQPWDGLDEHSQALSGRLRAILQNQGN
Alkaline phosphatase, placental type, sequence (P05187 whole entry): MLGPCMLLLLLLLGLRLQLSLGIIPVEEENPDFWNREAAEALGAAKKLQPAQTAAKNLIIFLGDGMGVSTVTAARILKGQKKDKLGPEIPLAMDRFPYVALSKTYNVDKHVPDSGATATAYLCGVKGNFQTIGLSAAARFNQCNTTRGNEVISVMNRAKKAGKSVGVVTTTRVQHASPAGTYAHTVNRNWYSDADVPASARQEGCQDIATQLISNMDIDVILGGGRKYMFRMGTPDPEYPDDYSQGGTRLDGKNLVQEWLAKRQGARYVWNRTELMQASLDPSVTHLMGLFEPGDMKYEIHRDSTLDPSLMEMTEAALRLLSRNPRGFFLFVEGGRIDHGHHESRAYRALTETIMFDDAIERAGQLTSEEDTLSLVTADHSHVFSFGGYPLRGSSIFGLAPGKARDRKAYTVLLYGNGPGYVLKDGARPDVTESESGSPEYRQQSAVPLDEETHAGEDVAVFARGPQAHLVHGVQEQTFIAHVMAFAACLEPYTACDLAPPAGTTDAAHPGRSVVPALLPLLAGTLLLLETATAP
Glucose-6-phosphate 1-dehydrogenase, sequence (P11413 whole entry): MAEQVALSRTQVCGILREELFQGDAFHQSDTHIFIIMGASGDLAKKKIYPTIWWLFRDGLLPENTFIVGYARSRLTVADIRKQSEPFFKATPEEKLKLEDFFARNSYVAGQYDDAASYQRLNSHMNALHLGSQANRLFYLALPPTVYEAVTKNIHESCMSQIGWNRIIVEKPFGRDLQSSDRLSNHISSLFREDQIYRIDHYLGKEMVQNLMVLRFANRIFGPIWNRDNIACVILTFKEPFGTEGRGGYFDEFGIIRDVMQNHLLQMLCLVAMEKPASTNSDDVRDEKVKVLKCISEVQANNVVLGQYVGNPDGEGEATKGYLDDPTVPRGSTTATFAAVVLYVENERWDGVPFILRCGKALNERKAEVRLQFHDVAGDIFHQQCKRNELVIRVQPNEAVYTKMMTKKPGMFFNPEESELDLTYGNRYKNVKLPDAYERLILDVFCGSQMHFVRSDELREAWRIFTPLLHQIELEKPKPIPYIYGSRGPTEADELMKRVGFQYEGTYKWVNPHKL
Transitional endoplasmic reticulum ATPase (Homo sapiens, UniProt P55072, C522A), sequence (P55072 2-806 C522A limits assumed): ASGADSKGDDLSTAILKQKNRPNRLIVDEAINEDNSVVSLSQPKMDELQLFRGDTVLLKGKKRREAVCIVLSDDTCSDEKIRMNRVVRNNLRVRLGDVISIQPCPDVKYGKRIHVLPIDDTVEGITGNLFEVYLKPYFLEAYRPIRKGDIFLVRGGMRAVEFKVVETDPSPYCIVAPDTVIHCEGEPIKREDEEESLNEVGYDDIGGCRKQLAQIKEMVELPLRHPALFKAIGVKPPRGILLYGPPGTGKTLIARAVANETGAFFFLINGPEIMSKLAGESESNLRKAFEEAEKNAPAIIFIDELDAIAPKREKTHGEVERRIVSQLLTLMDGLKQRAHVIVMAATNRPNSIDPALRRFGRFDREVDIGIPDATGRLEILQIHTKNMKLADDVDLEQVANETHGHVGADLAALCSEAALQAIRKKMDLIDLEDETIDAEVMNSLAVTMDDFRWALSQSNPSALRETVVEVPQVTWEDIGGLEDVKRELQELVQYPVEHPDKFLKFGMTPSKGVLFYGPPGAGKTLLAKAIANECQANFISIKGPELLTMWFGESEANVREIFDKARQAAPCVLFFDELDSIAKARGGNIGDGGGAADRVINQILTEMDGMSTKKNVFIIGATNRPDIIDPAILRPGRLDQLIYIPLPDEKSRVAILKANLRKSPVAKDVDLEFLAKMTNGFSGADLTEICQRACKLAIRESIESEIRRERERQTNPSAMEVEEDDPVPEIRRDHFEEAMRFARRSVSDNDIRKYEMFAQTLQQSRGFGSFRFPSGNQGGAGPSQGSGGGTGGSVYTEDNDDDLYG
Transitional endoplasmic reticulum ATPase (Homo sapiens, UniProt P55072), sequence (P55072 whole entry): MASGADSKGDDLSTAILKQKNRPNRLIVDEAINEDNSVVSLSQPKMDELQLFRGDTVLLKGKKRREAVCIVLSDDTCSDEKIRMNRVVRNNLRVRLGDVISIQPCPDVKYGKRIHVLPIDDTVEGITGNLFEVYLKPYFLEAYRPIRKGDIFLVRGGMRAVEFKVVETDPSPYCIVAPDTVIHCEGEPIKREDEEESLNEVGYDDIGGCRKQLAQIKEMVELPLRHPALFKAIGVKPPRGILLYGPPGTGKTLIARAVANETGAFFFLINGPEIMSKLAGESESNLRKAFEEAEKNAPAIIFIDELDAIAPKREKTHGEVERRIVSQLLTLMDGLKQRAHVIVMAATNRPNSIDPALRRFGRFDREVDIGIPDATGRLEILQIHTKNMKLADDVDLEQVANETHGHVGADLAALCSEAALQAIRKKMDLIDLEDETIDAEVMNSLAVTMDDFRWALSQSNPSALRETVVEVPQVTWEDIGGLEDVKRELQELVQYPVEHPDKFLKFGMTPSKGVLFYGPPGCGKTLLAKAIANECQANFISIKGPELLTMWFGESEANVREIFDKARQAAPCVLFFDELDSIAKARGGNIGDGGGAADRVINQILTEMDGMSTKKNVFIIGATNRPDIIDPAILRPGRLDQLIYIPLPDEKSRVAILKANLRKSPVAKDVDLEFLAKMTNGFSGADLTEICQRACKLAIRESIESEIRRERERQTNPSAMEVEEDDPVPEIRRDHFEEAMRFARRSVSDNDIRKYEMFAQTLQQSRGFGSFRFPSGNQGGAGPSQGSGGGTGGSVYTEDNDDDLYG

**Q.** For `O=C(/C=C/c1cn(CC(O)CN2CCCCC2)c2ccccc12)c1cccs1` (stereo not given), which EC50 [1] is on record?
**A.** The EC50 was 17.9 µM (inactive).

**Q.** Which IC50 [2] does the source give for `COc1ccc(C23CC4CC(CC(C4)C2)C3)cc1C(=O)NCCN(C)C` here?
**A.** The IC50 was 1.37 µM (active).

**Q.** With `Cc1ccc(NC(=O)Cn2sc3nc(C)cc(C)c3c2=O)c(Cl)c1` as the compound, how does the IC50 [3] read?
**A.** The IC50 was > 100 µM (inactive).

**Q.** What about the IC50 [4] of the same compound?
**A.** Its IC50 is 30.5 µM (inactive).

**Q.** What about the IC50 [5] of the same compound?
**A.** Its IC50 is 4.88 µM (active).

**Q.** With `Cc1cccc(OC(=O)c2ccc3nccnc3c2)c1` as the compound, how does the IC50 [6] read?
**A.** The IC50 was 9.63 µM (active).

**Q.** With `Cc1ccc(SC/C(O)=C(\C#N)c2nc3ccccc3s2)cc1` as the compound, how does the EC50 [7] read?
**A.** Its EC50 is 138 µM (active).

**Q.** What about the EC50 [8] of the same compound?
**A.** The EC50 was 2.95 µM (active).

**Q.** And the IC50 [9]?
**A.** The IC50 was > 50 µM (not active).

**Q.** And the EC50 [10]?
**A.** The EC50 was > 150 µM (not active).

**Q.** And the EC50 [11]?
**A.** Its EC50 is 425 nM (active).

**Q.** What about the IC50 [12] of the same compound?
**A.** Its IC50 is > 50 µM (not active).

**Q.** What about the EC50 [13] of the same compound?
**A.** Its EC50 is 7.74 µM (active).

**Q.** Which EC50 [14] does the source give for `N#CC1=C(S)N(c2ccccc2)C(c2ccc(-c3cc(Cl)ccc3Cl)o2)NC1=O` (stereo not given) here?
**A.** The EC50 was > 32 µM (inactive).

**Q.** For `O=C(CO/N=C/c1ccccc1OC(F)F)NCc1cccs1`, which EC50 [1] is on record?
**A.** Its EC50 is > 71.5 µM (inactive).

**Q.** Which AC50 [15] does the source give for `CC(=O)Oc1ccc2c(c1)CCC1C2CC[C@]2(C)C(OC(C)=O)CCC12` (stereo not given in full) here?
**A.** The AC50 was 31.6 µM (inconclusive).

**Q.** Which IC50 [16] does the source give for `O=C(NNC(=S)NC(=O)c1ccccc1[N+](=O)[O-])c1ccccc1[N+](=O)[O-]` here?
**A.** Its IC50 is > 100 µM (inactive).

**Q.** What does the source list for `COc1ccc(-c2csc3nc(-c4ccccc4OC)oc(=O)c23)cc1`?
**A.** CC50 [17]: 30.8 µM (active); EC50 [14]: 25 µM (inactive)

**Q.** With `O=C(O)c1cc(NS(=O)(=O)c2ccc(NC3CCCCC3)c([N+](=O)[O-])c2)cc(C(=O)O)c1` as the compound, how does the IC50 [2] read?
**A.** The IC50 was 5.62 µM (active).

**Q.** For `CCN1CCCC1Cn1c(-c2ccccc2)nc2c(N3CCOCC3)nc(C)nc21` (stereo not given), which AC50 [15] is on record?
**A.** The AC50 was 12.6 µM (inconclusive).

**Q.** For `COC(=O)[C@@H]1C[C@@]2(O)[C@H](O)[C@H](O)[C@H](O)C[C@H]2N1Cc1ccc(C(F)(F)F)cc1`, which AC50 [15] is on record?
**A.** Its AC50 is 20 µM (inconclusive).

**Q.** Which results are given for `COC(=O)C1=C(C)N(Cc2ccccc2)C(NCc2ccc(OC)cc2)=N[C@H]1c1ccccc1`?
**A.** IC50 [18]: 5.01 µM (active); IC50 [19]: 10.8 µM (active)

**Q.** For `CCOC(=O)/C(C#N)=C/c1ccc(OC(=O)c2ccccn2)cc1`, which IC50 [20] is on record?
**A.** The IC50 was > 64 µM (inactive).
